# Data as given in patent publication US20160030391A1, “METHODS AND COMPOSITIONS FOR IMPROVING COGNITIVE FUNCTION” (THE JOHNS HOPKINS UNIVERSITY, priority 2013, published 2016).
# Entries after “also recorded” stand apart in the source; their conditions may differ. Read-outs that look alike come from different tables or passages of the source.
# Assays:
# aMCI subjects [1] = test: Buschke Selective Reminding Test - Delayed Recall; assay type: in vivo, human; settings: levetiracetam 125 mg twice a day for two weeks
# [2] = tested on: reelin in Entorhinal Cortex (EC2); test: reelin in situ hybridization in entorhinal cortex after chronic levetiracetam; assay type: in vivo, rat; settings: levetiracetam 10 mg/kg/day, osmotic minipumps, four weeks (28 days), aged-impaired rats
# Method: Under isoflurane anesthesia, memory-impaired aged rats were implanted subcutaneously in the intrascapular region with osmotic mini-pumps (ALZET, Durect Corporation, Cupertino, Calif.) with levetiracetam (10 mg/kg/day) or saline vehicle for four weeks prior to perfusion. Young rats, which served as controls, received either saline vehicle in mini-pumps or no implantation.
# At the end of the 4-week treatment period, rats were anesthetized with isoflurane and perfused transcardiacally with 0.1 M phosphate buffer saline, followed by 4% paraformaldehyde in phosphate buffer. Brains were removed and post-fixed in paraformaldehyde overnight. The brains were then moved into 4% paraformaldehyde in phosphate buffer containing 16% sucrose. […]
# Probe templates were synthesized as described in Haberman et al. (2008). […] The final probe was resuspended in RNase-free water and the specific activity was determined by scintillation counter.
# In situ hybridization was carried out as described by Haberman et al., (2008). […] Slides were dried overnight, exposed to a phosphoimager screen, and quantified by using ImageQuant (GE Healthcare). Digital images were acquired of entorhinal cortical sections from the same levels for all animals and the subregion of interest was outlined and quantified. […]
# [3] = cited from earlier work
# [4] = levetiracetam blood plasma levels in aged-impaired rats; assay type: in vivo; settings: rat, 60 mg/kg/day, 28-day treatment, read-out: mean levetiracetam blood plasma level
# Source text: Rats: Blood was drawn from aged-impaired rats by cardiac puncture during perfusion after a 28-day levetiracetam treatment period and sent for analysis of levetiracetam plasma levels by MedTox Laboratories in St. Paul, Minn.
# aMCI subjects [5] = test: Verbal Paired Associates Test - Recognition; assay type: in vivo, human; settings: levetiracetam 125 mg twice a day for two weeks
# Source text: (§1) Breaks are provided to the subject as needed.
# aMCI subjects [6] = test: Verbal Paired Associates Test - Delayed Recall; assay type: in vivo, human; settings: levetiracetam 125 mg twice a day for two weeks
# Source text: as §1
smiles,measurement,setting,value
"CC[C@@H](C(N)=O)N1CCCC1=O [levetiracetam, (2S)-2-(2-oxopyrrolidin-1-yl)butanamide]",performance in Buschke Selective Reminding Test—Delayed Recall,aMCI subjects [1],fail to rescue performance
same,levels of reelin in Entorhinal Cortex (EC2) (reelin mRNA expression),[2],significantly increased; also recorded: restores
same,Plasma half-life,[3]; expected in elderly due to decreased renal function,9 to 10 h
same,time of peak plasma concentrations,[3]; following oral administration,about 1 hour
same,time to steady state,[3]; multiple twice-daily dosing,2 days
same,Plasma half-life,[3]; oral administration,approximately 7±1 hour
same,absorption after oral administration,[3]; oral administration,rapidly and almost completely absorbed
same,effect of food on bioavailability,[3]; oral administration,not affected by food
same,concentration at 28 days,[4],22400 ng/mL
same,performance in Verbal Paired Associates Test—Recognition,aMCI subjects [5],fail to rescue performance
same,performance in Verbal Paired Associates Test—Delayed Recall,aMCI subjects [6],fail to rescue performance
